From paper PMC11992225, “Antibacterial compounds against non-growing and intracellular bacteria” (npj Antimicrobials and Resistance, 2025)
Where “and” joins values, the source holds several entries; their conditions need not be identical. Equal entries are not always repeated.

Assays:
[1] = tested on: non-growing P. aeruginosa DSM1117; experiment: Dose-dependent killing analysis (CFU spot-plating) of stationary-phase P. aeruginosa; format: cell-based, Pseudomonas aeruginosa; conditions: for reduction of bacterial counts, non-growing P. aeruginosa: at 2.5 µM, 1:4 CA-MHB pH 7.4, 24 h treatment; for log10(CFU/ml) after treatment / killing, average Δlog10(CFU/ml) / log10(CFU/ml) of treated nongrowing bacteria (single replicates): P. aeruginosa; for log10(CFU/ml) after treatment: individual replicates; for log10(CFU/ml) of treated nongrowing bacteria (single replicates): before treatment 8.887; for reduction of bacterial counts, stationary phase P. aeruginosa: at 0.5 µM, 24 h treatment
Method: The cultures were grown and treated for 24 h in 1:4 CA-MHB (pH 7.4).
(§1) For survival analysis, bacteria were cultivated as described for the dose–response dilution-regrowth assay. Assays with UPEC were conducted at the CBCS screening facility using 96-well plates with a 200 μl sample volume, and compounds were dispensed using the Echo® (Labcyte) system. P. aeruginosa and S. aureus samples were treated according to the protocol used for the dilution-regrowth experiments. Treated samples were serially diluted 10-fold in PBS, and 10 μl drops were spot-plated onto rectangular LB agar plates using either a Beckman NXP robot (for UPEC) or an Integra VIAFLO96 electronic pipette (for P. aeruginosa and S. aureus). The LB agar plates were incubated overnight at 37 °C and scanned. Colonies were counted at the spots of the lowest dilution where individual colonies could be accurately distinguished. Each colony was manually marked on a separate image layer using the GNU Image Manipulation Program, and counted using NIST’s Integrated Colony Enumerator (NICE 1.4) software. The experiments were performed in three biological replicates.

[2] = tested on: intracellular S. flexneri 5a M90T in TC7 cells; experiment: microbe, parasite or virus in culture; format: cell-based, Shigella flexneri; conditions: for IC50: Shigella flexneri, TC7, 14 h
Source text: Nonproliferating bacterial pathogens frequently inhabit intracellular environments, but establishing relevant infection models for high-throughput testing is challenging. Therefore, we firstly tested ability of the hit compounds to cross the eukaryotic cytoplasmic membrane barrier and inhibit growth of S. flexneri within the cytoplasm of the TC7 human colon adenocarcinoma cell line[59]. To this end, we developed a new, fluorescence-based method that enables real-time monitoring of growth of intracellular Shigella. We used S. flexneri 5a M90T strain producing the AfaE adhesin that enhances bacterial adhesion to epithelial cells and allows synchronization of invasion. The strain was further modified to constitutively express super-folder GFP (sfGFP), which enables monitoring bacterial growth by fluorescence measurement. The epithelial cells were grown to confluence and infected with bacteria at an MOI (multiplicity of infection) of 50. […] Following bacterial adhesion and invasion, the cells were incubated with varying concentrations of the hit compounds and intracellular bacterial growth was tracked by measuring green fluorescence.
The cells were split using trypsin, seeded in 96-well plates for infection, and grown to confluence, corresponding to approximately 40,000 cells per well.
A single colony of S. flexneri was inoculated into TSB supplemented with 50 μg/ml spectinomycin and incubated overnight at 37°C with agitation. The overnight culture was diluted 1:200 in fresh TSB, and the bacteria were grown at 37 °C until the OD600 reached 0.3–0.4, corresponding to approximately 2 × 10^7 CFU/ml. Bacteria were pelleted by centrifugation, washed twice with sterile PBS, and resuspended in infection solution (serum-free DMEM supplemented with 20 mM HEPES, pH 7.4). Just prior to infection, the medium was withdrawn, and the cells were washed twice with sterile PBS. The bacterial inoculum (MOI 50, 2 × 10^7 CFU/ml) was added to all wells except the no-infection control. The plates were incubated at room temperature for 15 min to allow bacterial adhesion, followed by a 1 h incubation at 37 °C with 5% CO2 to facilitate bacterial invasion.
Twofold serial dilutions of the drugs were prepared in infection solution containing 50 μg/ml gentamicin in a 96-well plate. After the invasion period, the bacterial inoculum was removed, and the serial dilutions of the drugs were added to the wells, except for the no-drug control. […] […] The experiments were performed in triplicates on separate days.
Statistical significance of the drug effects was assessed using a one-way ANOVA followed by Dunnett’s test, comparing each treatment to the drug-free control. Statistical significance of the differences in chemical characteristics between the hit compounds and the Prestwick library was assessed using a Mann–Whitney test. Statistical significance was set at P ≤ 0.05. A five-parameter logistic equation was used for asymmetric sigmoidal curve fitting and for EC50 and IC50 determination. The Venn diagram in Fig. 1F was prepared using BioVenn web application. Characteristics of the chemical and physical properties of Prestwick library compounds were obtained from Supplementary Table S1 from reference. Characteristics of the hit compounds not included in the Prestwick library were retrieved from the PubChem database.

[3] = tested on: non-growing UPEC CFT073; experiment: Dose-dependent killing analysis (CFU spot-plating) of stationary-phase UPEC; format: cell-based, Escherichia coli; conditions: for log10(CFU/ml) after treatment: individual replicates; for log10(CFU/ml) of treated nongrowing bacteria (single replicates): before treatment 8.977
Method: To differentiate between these scenarios, we used CFU counting by agar plating to assess the bactericidal effect on non-growing bacteria. […] Conversely, if no significant reduction in CFU is observed, the regrowth delay is due to PAE without killing. […] Fluoroquinolones are known to cause PAE after treatment of growing bacterial cultures.
as §1

[4] = TC7 cells infected with GFP-expressing S. flexneri, 14 h treatment
[5] = E. coli in 1:4 CA-MHB (pH 7.4), concentration 1
[6] = E. coli in 1:4 CA-MHB (pH 7.4), concentration 2.5
[7] = E. coli in 1:4 CA-MHB (pH 7.4), concentration 5
[8] = E. coli in 1:4 CA-MHB (pH 7.4), concentration 10
[9] = concentration 2.5, vs CFU before treatment
[10] = concentration 10, vs CFU before treatment
[11] = E. coli in 1:4 CA-MHB (pH 7.4), drug concentration 0.25
[12] = E. coli in 1:4 CA-MHB (pH 7.4), drug concentration 0.5

Row | SMILES | reduction of bacterial counts, non-growing P. aeruginosa [1] | IC50 [2] | Fluorescence intensity (RFU), Mean, 0.5 x MIC [2, 4] | Fluorescence intensity (RFU), Mean, 2 x MIC [2, 4] | Fluorescence intensity (RFU), Mean, 4 x MIC [2, 4] | Fluorescence intensity (RFU), Mean, 8 x MIC [2, 4] | Fluorescence intensity (RFU), Mean, 16 x MIC [2, 4] | Fluorescence intensity (RFU), Mean, 32 x MIC [2, 4] | Fluorescence intensity (RFU), Mean, MIC [2, 4] | log10(CFU/ml) after treatment [3, 5] | log10(CFU/ml) after treatment [3, 6] | log10(CFU/ml) after treatment [3, 7] | log10(CFU/ml) after treatment [3, 8] | log10(CFU/ml) after treatment ([1]; concentration 2.5) | killing, average Δlog10(CFU/ml) [1, 9] | log10(CFU/ml) after treatment ([1]; concentration 10) | killing, average Δlog10(CFU/ml) [1, 10] | reduction of bacterial counts, stationary phase P. aeruginosa [1] | further results
1 | O=C(O)c1cn(C2CC2)c2cc(N3CCNCC3)c(F)cc2c1=O [Ciprofloxacin] | more than four | 54 nM | 6160.67 RFU | 3512.33 RFU | 3078.86 RFU | 2399.75 RFU | 1781.06 RFU | 1734.42 RFU | 4637.36 RFU | – | – | – | – | – | – | – | – | – | –
2 | CO/N=C1\CN(c2nc3c(cc2F)c(=O)c(C(=O)O)cn3C2CC2)CC1CN (stereo not drawn) [Gemifloxacin] | more than four | 22 nM | – | 4953.61 RFU | 3661.36 RFU | 3159.39 RFU | 3090.56 RFU | 2706.11 RFU | 6688.44 RFU | 8.699 log10(CFU/ml) and 8.079 log10(CFU/ml) and 7.301 log10(CFU/ml) | 8.230 log10(CFU/ml) and 7.602 log10(CFU/ml) and 7.301 log10(CFU/ml) | 7.903 log10(CFU/ml) and 7.415 log10(CFU/ml) and 7.322 log10(CFU/ml) | 8.146 log10(CFU/ml) and 7.041 log10(CFU/ml) and 6.602 log10(CFU/ml) | =<4 log10(CFU/ml) (2×) and 4.954 log10(CFU/ml) | 4.569 log10(CFU/ml) | =<4 log10(CFU/ml) (2×) and 4.477 log10(CFU/ml) | 4.728 log10(CFU/ml) | – | log10(CFU/ml) after treatment ([3]; E. coli in 1:4 CA-MHB (pH 7.4), concentration 0.25): 9.342 log10(CFU/ml) and 9.204 log10(CFU/ml) and 8.505 log10(CFU/ml); log10(CFU/ml) after treatment ([3]; E. coli in 1:4 CA-MHB (pH 7.4), concentration 0.5): 8.845 log10(CFU/ml) and 8.778 log10(CFU/ml) and 8.000 log10(CFU/ml); log10(CFU/ml) after treatment ([3]; E. coli in LPM (pH 5.5), concentration 0.25): 6.778 log10(CFU/ml) and 7.146 log10(CFU/ml) and 8.322 log10(CFU/ml); log10(CFU/ml) after treatment ([3]; E. coli in LPM (pH 5.5), concentration 0.5): 7.000 log10(CFU/ml) and 7.255 log10(CFU/ml) and 8.301 log10(CFU/ml); log10(CFU/ml) after treatment ([3]; E. coli in LPM (pH 5.5), concentration 1): 7.041 log10(CFU/ml) and 7.362 log10(CFU/ml) and 8.079 log10(CFU/ml); log10(CFU/ml) after treatment ([3]; E. coli in LPM (pH 5.5), concentration 2.5): 6.778 log10(CFU/ml) and 7.255 log10(CFU/ml) and 8.230 log10(CFU/ml); log10(CFU/ml) after treatment ([3]; E. coli in LPM (pH 5.5), concentration 5): 7.230 log10(CFU/ml) and 7.380 log10(CFU/ml) and 8.146 log10(CFU/ml); log10(CFU/ml) after treatment ([3]; E. coli in LPM (pH 5.5), concentration 10): 7.176 log10(CFU/ml) (2×) and 8.230 log10(CFU/ml); log10(CFU/ml) after treatment ([1]; concentration 0.1): 8.477 log10(CFU/ml) and 8.778 log10(CFU/ml) and 8.114 log10(CFU/ml); killing, average Δlog10(CFU/ml) ([1]; concentration 0.1, vs CFU before treatment): 0.431 log10(CFU/ml); log10(CFU/ml) after treatment ([1]; concentration 0.5): 7.699 log10(CFU/ml) (2×) and 7.477 log10(CFU/ml); killing, average Δlog10(CFU/ml) ([1]; concentration 0.5, vs CFU before treatment): 1.262 log10(CFU/ml)
3 | Cc1oc(=O)oc1CN1CCN(c2cc3c(cc2F)c(=O)c(C(=O)O)c2n3C(C)S2)CC1 (stereo not drawn) [Prulifloxacin] | more than four | 147 nM | – | 8759.64 RFU | 6976.67 RFU | 4116.28 RFU | 3279.44 RFU | 2886.92 RFU | 8494.31 RFU | 9.041 log10(CFU/ml) (2×) and 8.398 log10(CFU/ml) | 8.845 log10(CFU/ml) and 8.230 log10(CFU/ml) and 7.903 log10(CFU/ml) | 8.477 log10(CFU/ml) and 7.699 log10(CFU/ml) and 7.176 log10(CFU/ml) | 7.903 log10(CFU/ml) and 7.176 log10(CFU/ml) (2×) | =<4 log10(CFU/ml) (2×) and 4.602 log10(CFU/ml) | 4.687 log10(CFU/ml) | =<4 log10(CFU/ml) | 4.887 log10(CFU/ml) | more than four | killing, average Δlog10(CFU/ml) [3, 11]: 0.155 log10(CFU/ml); log10(CFU/ml) of treated nongrowing bacteria (single replicates) [3, 11]: 9.322 log10(CFU/ml) and 8.845 log10(CFU/ml) and 8.301 log10(CFU/ml); killing, average Δlog10(CFU/ml) [3, 12]: 0.462 log10(CFU/ml); log10(CFU/ml) of treated nongrowing bacteria (single replicates) [3, 12]: 8.903 log10(CFU/ml) and 8.301 log10(CFU/ml) and 8.342 log10(CFU/ml); killing, average Δlog10(CFU/ml) ([1]; drug concentration 0.1): 0.555 log10(CFU/ml); log10(CFU/ml) of treated nongrowing bacteria (single replicates) ([1]; drug concentration 0.1): 8.477 log10(CFU/ml) (2×) and 8.041 log10(CFU/ml); killing, average Δlog10(CFU/ml) ([1]; drug concentration 0.5): 3.168 log10(CFU/ml); log10(CFU/ml) of treated nongrowing bacteria (single replicates) ([1]; drug concentration 0.5): 5.778 log10(CFU/ml) and 6.602 log10(CFU/ml) and 4.778 log10(CFU/ml); MIC:IC50 ratio ([2]; S. flexneri MIC in TSB versus intracellular IC50): below 0.5
4 | CC[C@H]1OC(=O)C[C@@H](O)[C@H](C)[C@@H](O[C@@H]2O[C@H](C)C[C@H](N(C)C)[C@H]2O)[C@@H](CC=O)C[C@@H](C)C(=O)/C=C/[C@]2(C)O[C@H]2[C@@H]1C [Rosamicin] | – | 23600 nM | 8207.86 RFU | 3601.92 RFU | 1830.75 RFU | – | – | – | 6316.33 RFU | – | – | – | – | – | – | – | – | – | Fluorescence intensity (RFU), Mean, 0.25 x MIC ([2]; TC7 cells infected with GFP-expressing S. flexneri, 14 h treatment, 0.25 x MIC): 9383.2 RFU
5 | CC1Sc2c(C(=O)O)c(=O)c3cc(F)c(N4CCNCC4)cc3n21 (stereo not drawn) [Ulifloxacin] | more than four | 101 nM | – | 6924.86 RFU | 4362.58 RFU | 3208.03 RFU | 2720.44 RFU | 2065.19 RFU | 8271.31 RFU | – | – | – | – | – | – | – | – | more than four | –
